Experimental findings from ChEMBL document CHEMBL4184158, “Azolylthioacetamides as a potent scaffold for the development of metallo-β-lactamase inhibitors” (Bioorg Med Chem Lett, 2017) are described below.

For orientation: pIC50 means the IC50 on a negative log10 scale, so that one unit is a factor of ten. Usually MIC stands for the least concentration at which growth counts as inhibited.

A short description of experiment [1]: Inhibition of bacterial ImiS expressed in Escherichia coli BL21 (DE3) transformed cells using imipenem as substrate by UV spectrometry. On the set-up: species or system Bacteria.
Experiment [2] concerns Bacteria. Kind of experiment: Inhibition of bacterial NDM1 expressed in Escherichia coli DH5R transformed cells at 500 uM using imipenem as substrate by UV spectrometry.
The test system of experiment [3] is Escherichia coli. Kind of experiment: Antibacterial activity against Escherichia coli BL21(DE3) at 16 ug/ml after 20 hrs by broth microdilution assay. It is filed as functional, organism-based. Background: Dilution methods test growth across graded concentrations, often in twofold steps.
Experiment [4] has as its system Bacteria. The experiment can be described thus: Inhibition of bacterial ImiS expressed in Escherichia coli BL21 (DE3) transformed cells assessed as potentiation of imipenem-induced antibacterial activity by measuring imipenem MIC after 20 hrs by broth microdilution assay (reference value: 1 ug/ml).
Experiment [5] concerns Bacteria. The experiment can be described thus: Inhibition of bacterial NDM1 expressed in Escherichia coli BL21 (DE3) transformed cells assessed as potentiation of imipenem-induced antibacterial activity by measuring imipenem MIC after 20 hrs by broth microdilution assay (reference value: 16 ug/ml).
The test system of experiment [6] is Bacteria. The experiment can be described thus: Competitive inhibition of bacterial ImiS expressed in Escherichia coli BL21 (DE3) transformed cells using imipenem as substrate after 5 mins by Lineweaver-Burk plot method.
Experiment [7] relates to Bacteria. The experiment can be described thus: Uncompetitive inhibition of bacterial ImiS expressed in Escherichia coli BL21 (DE3) transformed cells using imipenem as substrate after 5 mins by Lineweaver-Burk plot method.
Experiment [8] has as its system Bacteria. The experiment can be described thus: Inhibition of bacterial metallo-beta-lactamase L1 expressed in Escherichia coli […] cells at 500 uM using imipenem as substrate by UV spectrometry.
For experiment [9], the system named is Bacteria. The experiment can be described thus: Competitive inhibition of bacterial NDM-1 expressed in Escherichia coli BL21 (DE3) transformed cells using imipenem as substrate after 5 mins by Lineweaver-Burk plot method.
Experiment [10] in a line: Inhibition of bacterial NDM1 expressed in Escherichia coli DH5R transformed cells using imipenem as substrate by UV spectrometry. On the set-up: species or system Bacteria.
The test system of experiment [11] is Bacteria. The experiment can be described thus: Inhibition of bacterial ImiS expressed in Escherichia coli BL21 (DE3) transformed cells at 500 uM using imipenem as substrate by UV spectrometry.
Experiment [12] deals with Bacteria. Kind of experiment: Uncompetitive inhibition of bacterial NDM-1 expressed in Escherichia coli BL21 (DE3) transformed cells using imipenem as substrate after 5 mins by Lineweaver-Burk plot method.

pIC50: −log10 of the molar value. The source made the active and inactive calls. The calls are words filed in the database; no cut-off is given here.

`Nn1c(Cc2cccs2)nnc1SCC(=O)Nc1nc2ccccc2[nH]1` had a negative logarithm of the IC50 (pIC50) in experiment [1] of 7.11. In addition, the inhibition result in [2] and in [8] was “inactive” in each case. Further, the outcome in experiment [3] was inactive. Further, the MIC in experiment [4] was determined as 0.25 µg/mL; in [5] it was 16 µg/mL. The Kic in experiment [6] is 110 nM. For the same compound, in experiment [7], the Kiuc amounted to 80 nM.

As for `Nc1ccccc1-c1nnc(SCC(=O)Nc2nc3ccccc3[nH]2)n1N`, the negative logarithm of the IC50 (pIC50) in [1] was 7.82. Also, the inhibition result in experiment [2] and in experiment [8] was “inactive” each time. In [3], the outcome was inactive. Besides, the minimal inhibitory concentration (MIC) in experiment [4] stood at 0.25 µg/mL; in [5] it was 16 µg/mL. This compound yielded a Kic in experiment [6] of 22 nM. This compound showed a Kiuc in [7] of 11 nM.

With `Nc1ccccc1-c1nnc(SCC(=O)Nc2nc3ccc([N+](=O)[O-])cc3[nH]2)[nH]1`, in [9], the Kic was determined as 550 nM. This compound gave a negative logarithm of the IC50 (pIC50) in experiment [10] of 6.77. The inhibition result in [11] and in experiment [8] was “inactive” in each case. Besides, in experiment [12], the Kiuc stood at 310 nM. Besides, in experiment [3], the result was inactive. Besides, the minimal inhibitory concentration (MIC) in experiment [4] was 1 µg/mL; in experiment [5], 4 µg/mL.

Compound `O=C(CSc1nnc(-c2cccc([N+](=O)[O-])c2)s1)Nc1nc2ccc([N+](=O)[O-])cc2[nH]1` showed a pIC50 in experiment [10] of 5.29. Further, the inhibition entry in experiment [11] and in experiment [8] was “inactive” each time. Moreover, in experiment [3], the outcome was inactive. Also, the values for the minimum inhibitory concentration (MIC) in [4] and in experiment [5] were 1 µg/mL and 8 µg/mL, respectively.

Regarding `Nn1c(Cc2ccccc2)nnc1SCC(=O)Nc1nc2ccc([N+](=O)[O-])cc2[nH]1`, the pIC50 in experiment [10] is 6.14. The inhibition result in [11] and in experiment [8] was “inactive” in each case. For the same compound, the outcome in experiment [3] was inactive. Besides, the MIC in experiment [4] is 1 µg/mL; in experiment [5], 4 µg/mL.

In experiment [10], `Nc1ccccc1-c1nnc(SCC(=O)Nc2nc3ccc([N+](=O)[O-])cc3[nH]2)n1N` showed a pIC50 of 5.96. Besides, the inhibition result in [11] and in experiment [8] was “inactive” throughout. For the same compound, the outcome in experiment [3] was inactive. Besides, the minimum inhibitory concentration (MIC) was determined as 1 µg/mL in [4] and 8 µg/mL in experiment [5].
